Laboratory results from patent publication EP1285918A1, “C7 Ester substituted taxanes as antitumor agents” (Florida State University Research Foundation, Inc., priority 2001, dated 2003).
Like-named read-outs stand apart in the source and are kept apart here.

Legend:
HCT116 = assay: In Vitro cytotoxicity measured by the cell colony formation assay; assay type: cell-based; conditions: Homo sapiens, HCT-116; 72 h drug incubation, colonies counted after 7 days; concentration producing 50% inhibition of colony formation; read-out: IN VITRO ID 50 (nm) HCT116
[1] = tested on: MX-1 Human Breast Carcinoma Xenograft; conditions: for MDS (n): days until tumor reached 1.5 g
Method: The antitumor compounds were prepared in the following vehicle: 5% ethanol, 5% Cremophor and 90% isotonic saline.
Female Nu/Nu mice (12-13 weeks of age; implanted with 1 mm^3 MX-1 human breast carcinoma fragments in the flank) were sorted into treatment groups of six mice each (MX-1 tumor size ranges and group mean MX-1 tumor size ranges were 56-138 mg and 68-74 mg, respectively). […] All treatments were administered as a single oral bolus on Day 1, and the study was terminated on Day 60.
(§1) The mean days of survival is the number of days after which an MX-1 neoplasm reached a size of 1.5 g and the animal was euthanized. A complete response is obtained if the tumor is not palpable at the end of the study. A partial response is obtained if the tumor shrinks to a size smaller than its size on Day 1 of the study.

[2] = tested on: SKMES human lung cancer xenograft
Method: Female Nu/Nu mice (6-8 weeks of age; implanted with 1 mm^3 SKMES lung carcinoma fragments in the flank) were sorted into treatment groups of six mice each. […] Treatment was administered as a single bolus on Day 1, and the study was terminated on Day 62.
as §1, with “a SKMES” for “an MX-1”, “2.0” for “1.5”

SK-MES carcinoma = assay: In vivo evaluation against SK-MES human lung carcinoma xenograft, i.v. (Example 11)
Method: Two antitumor compounds were formulated for an i.v. dosing regime prepared in the following vehicle: 10% ethanol, 10% Cremophor and 80% isotonic saline. […] Other compounds were formulated similarly.
The MTDs for the antitumor compounds were calculated from earlier single dose data for mice receiving i.v. administration of these compounds. […] Vehicle control animals were dosed twice intravenously with half the total volume being given separated by one hour. The study was terminated at Day 60.
as §1, with “The results are summarized in Table 1 and include mean days of survival (MDS), number of toxic deaths, number of survivors, number of complete or partial responses, and number with stable disease. The” for “The”, “a” for “an MX-1”
A tumor scoring system was designed to provide a more quantitative ranking of efficacy (therapeutic potential) among the antitumor agents evaluated against the different human solid tumor xenografts. Each mouse in a study was given a score of from 1 to 10 at the end of the study. The scores can be summarized as follows:
The individual score for each mouse was averaged into a mean score for each treatment group. […]

[3] = 28 mg/kg single oral bolus Day 1, 6 mice/group, study end Day 60
[4] = 40 mg/kg single oral bolus Day 1, 6 mice/group, study end Day 60
[5] = 40 mg/kg single oral bolus Day 1, 6 mice/group, study end Day 62
[6] = i.v. split dose qd x 1 at MTD (Taxol 36 mg/kg, 1393 72.1 mg/kg), 6 mice/group, Day 60

In the case of `CC(=O)O[C@H]1C(=O)[C@@]2(C)[C@H]([C@H](OC(=O)c3ccccc3)[C@]3(O)C[C@H](OC(=O)[C@H](O)[C@@H](NC(=O)c4ccccc4)c4ccccc4)C(C)=C1C3(C)C)[C@]1(OC(C)=O)CO[C@@H]1C[C@@H]2O` [Taxol, paclitaxel, reference compound], the IC50 (HCT116) is reported as 2.1 nM, the “Complete Responses” value [1, 3] is reported as 0 and the “Partial Responses” value [1, 3] is reported as 0. For the same compound, the “Stable Disease” value [1, 3] was 1, the Survivors [1, 3] was 1 and the “Toxic Deaths” value [1, 3] was 0. The “MDS (n)” value [1, 3] was 23.1 ± 1.7 (5) days, the “Complete Responses” value [1, 4] was 0 and the “Partial Responses” value [1, 4] was 1. The “Stable Disease” value [1, 4] was 0, the Survivors [1, 4] was 1 and the “Toxic Deaths” value [1, 4] was 0. For the same compound, the “MDS (n)” value [1, 4] was 23.2 ± 1.3 (5) days, the Stable Disease ([1]; MX-1, single oral bolus, Taxol 40 and 28 mg/kg groups together, Day 60) was “one” and the Partial Response ([1]; MX-1, single oral bolus, Taxol 40 and 28 mg/kg groups together, Taxotere 100 and 70 mg/kg groups together, Day 60) was “One”. The “% Total Response” value [2, 5] was 0%, the “Complete Responses” value [2, 5] was 0 and the “Partial Responses” value [2, 5] was 0. For the same compound, the “Stable Disease” value [2, 5] was 0, the Survivors [2, 5] was 0 and the “Toxic Deaths” value [2, 5] was 1. For the same compound, the “MDS (n)” value ([2]; 40 mg/kg single oral bolus Day 1, 6 mice/group, study end Day 62, days until tumor reached 2.0 g) was 9.2±1.4 (5) days, the activity ([2]; SKMES, Taxol orally 40 mg/kg single bolus (Group 10)) was “not active” and the “survival extension compared to vehicle controls” value (SK-MES carcinoma; Taxol 36 mg/kg i.v.) was 30%. The tolerability (SK-MES carcinoma; i.v. at MTD) was “well tolerated”, the “MDS (n)” value (SK-MES carcinoma; i.v. split dose qd x 1 at MTD (Taxol 36 mg/kg, 1393 72.1 mg/kg), 6 mice/group, 1.5 g cut-off, Day 60) was 16 ± 2.0 (6) days and the “Complete Response” value (SK-MES carcinoma; [6]) was 0. The “Partial Response” value (SK-MES carcinoma; [6]) was 0, the “Stable Disease” value (SK-MES carcinoma; [6]) was 0 and the Survivors (SK-MES carcinoma; [6]) was 0. For the same compound, the “Toxic Deaths” value (SK-MES carcinoma; [6]) was 0 and the “Mean Score” value (SK-MES carcinoma; i.v. split dose qd x 1 at MTD (Taxol 36 mg/kg, 1393 72.1 mg/kg), tumor score 1 to 10 per mouse, group mean) was 1.3 ± 0.3.
